Measurements published in BigSolDB 2.1.

Cc1cc(C(=O)O)ccc1[N+](=O)[O-]
Details	solubility (mole fraction)
in 1,4-dioxane, 283.15 K	0.0407
in 1,4-dioxane, 285.65 K	0.0428
in 1,4-dioxane, 288.15 K	0.0448
in 1,4-dioxane, 290.65 K	0.0469
in 1,4-dioxane, 293.15 K	0.0493
in 1,4-dioxane, 295.65 K	0.0519
in 1,4-dioxane, 298.15 K	0.0545
in 1,4-dioxane, 300.65 K	0.0571
in 1,4-dioxane, 303.15 K	0.06
in 1,4-dioxane, 305.65 K	0.0628
in 1,4-dioxane, 308.15 K	0.0658
in 1,4-dioxane, 310.65 K	0.0688
in 1,4-dioxane, 313.15 K	0.0718
in 1,4-dioxane, 315.65 K	0.0754
in 1,4-dioxane, 318.15 K	0.0802
in DMF, 283.15 K	0.0677
in DMF, 285.65 K	0.0709
in DMF, 288.15 K	0.0754
in DMF, 290.65 K	0.0795
in DMF, 293.15 K	0.0845
in DMF, 295.65 K	0.0908
in DMF, 298.15 K	0.0975
in DMF, 300.65 K	0.104
in DMF, 303.15 K	0.111
in DMF, 305.65 K	0.118
in DMF, 308.15 K	0.126
in DMF, 310.65 K	0.135
in DMF, 313.15 K	0.142
in DMF, 315.65 K	0.152
in DMF, 318.15 K	0.162
in NMP, 283.15 K	0.0856
in NMP, 285.65 K	0.0872
in NMP, 288.15 K	0.09
in NMP, 290.65 K	0.0933
in NMP, 293.15 K	0.0965
in NMP, 295.65 K	0.1
in NMP, 298.15 K	0.105
in NMP, 300.65 K	0.109
in NMP, 303.15 K	0.113
in NMP, 305.65 K	0.118
in NMP, 308.15 K	0.123
in NMP, 310.65 K	0.128
in NMP, 313.15 K	0.133
in NMP, 315.65 K	0.138
in NMP, 318.15 K	0.145
in acetone, 283.15 K	0.0204
in acetone, 285.65 K	0.0212
in acetone, 288.15 K	0.022
in acetone, 290.65 K	0.0228
in acetone, 293.15 K	0.0238
in acetone, 295.65 K	0.0247
in acetone, 298.15 K	0.026
in acetone, 300.65 K	0.0273
in acetone, 303.15 K	0.0285
in acetone, 305.65 K	0.0299
in acetone, 308.15 K	0.0311
in acetone, 310.65 K	0.0325
in acetone, 313.15 K	0.0338
in acetone, 315.65 K	0.0353
in acetone, 318.15 K	0.0372
in acetonitrile, 283.15 K	0.00255
in acetonitrile, 285.65 K	0.00276
in acetonitrile, 288.15 K	0.00302
in acetonitrile, 290.65 K	0.00328
in acetonitrile, 293.15 K	0.00355
in acetonitrile, 295.65 K	0.00382
in acetonitrile, 298.15 K	0.00412
in acetonitrile, 300.65 K	0.00438
in acetonitrile, 303.15 K	0.00469
in acetonitrile, 305.65 K	0.00498
in acetonitrile, 308.15 K	0.00529
in acetonitrile, 310.65 K	0.00564
in acetonitrile, 313.15 K	0.00598
in acetonitrile, 315.65 K	0.00638
in acetonitrile, 318.15 K	0.00688
in ethanol, 283.15 K	0.00751
in ethanol, 285.65 K	0.0078
in ethanol, 288.15 K	0.00818
in ethanol, 290.65 K	0.00866
in ethanol, 293.15 K	0.00915
in ethanol, 295.65 K	0.00964
in ethanol, 298.15 K	0.0102
in ethanol, 300.65 K	0.0108
in ethanol, 303.15 K	0.0113
in ethanol, 305.65 K	0.0119
in ethanol, 308.15 K	0.0125
in ethanol, 310.65 K	0.0132
in ethanol, 313.15 K	0.0138
in ethanol, 315.65 K	0.0146
in ethanol, 318.15 K	0.0155
in ethyl acetate, 283.15 K	0.0106
in ethyl acetate, 285.65 K	0.0111
in ethyl acetate, 288.15 K	0.0116
in ethyl acetate, 290.65 K	0.0123
in ethyl acetate, 293.15 K	0.0127
in ethyl acetate, 295.65 K	0.0134
in ethyl acetate, 298.15 K	0.014
in ethyl acetate, 300.65 K	0.0146
in ethyl acetate, 303.15 K	0.0153
in ethyl acetate, 305.65 K	0.0159
in ethyl acetate, 308.15 K	0.0167
in ethyl acetate, 310.65 K	0.0175
in ethyl acetate, 313.15 K	0.0185
in ethyl acetate, 315.65 K	0.0193
in ethyl acetate, 318.15 K	0.0205
in isopropanol, 283.15 K	0.00877
in isopropanol, 285.65 K	0.00915
in isopropanol, 288.15 K	0.00966
in isopropanol, 290.65 K	0.0102
in isopropanol, 293.15 K	0.0108
in isopropanol, 295.65 K	0.0115
in isopropanol, 298.15 K	0.0122
in isopropanol, 300.65 K	0.0129
in isopropanol, 303.15 K	0.0136
in isopropanol, 305.65 K	0.0143
in isopropanol, 308.15 K	0.0151
in isopropanol, 310.65 K	0.016
in isopropanol, 313.15 K	0.0169
in isopropanol, 315.65 K	0.0181
in isopropanol, 318.15 K	0.0192
in methanol, 283.15 K	0.00606
in methanol, 285.65 K	0.00664
in methanol, 288.15 K	0.00734
in methanol, 290.65 K	0.00809
in methanol, 293.15 K	0.00879
in methanol, 295.65 K	0.00956
in methanol, 298.15 K	0.0104
in methanol, 300.65 K	0.0111
in methanol, 303.15 K	0.012
in methanol, 305.65 K	0.0129
in methanol, 308.15 K	0.0137
in methanol, 310.65 K	0.0147
in methanol, 313.15 K	0.0158
in methanol, 315.65 K	0.0169
in methanol, 318.15 K	0.0184
in n-butanol, 283.15 K	0.00676
in n-butanol, 285.65 K	0.00725
in n-butanol, 288.15 K	0.00789
in n-butanol, 290.65 K	0.00844
in n-butanol, 293.15 K	0.00913
in n-butanol, 295.65 K	0.00994
in n-butanol, 298.15 K	0.0108
in n-butanol, 300.65 K	0.0116
in n-butanol, 303.15 K	0.0125
in n-butanol, 305.65 K	0.0134
in n-butanol, 308.15 K	0.0144
in n-butanol, 310.65 K	0.0153
in n-butanol, 313.15 K	0.0163
in n-butanol, 315.65 K	0.0174
in n-butanol, 318.15 K	0.0188
in n-propanol, 283.15 K	0.00726
in n-propanol, 285.65 K	0.00765
in n-propanol, 288.15 K	0.00815
in n-propanol, 290.65 K	0.00866
in n-propanol, 293.15 K	0.00914
in n-propanol, 295.65 K	0.00966
in n-propanol, 298.15 K	0.0103
in n-propanol, 300.65 K	0.0109
in n-propanol, 303.15 K	0.0115
in n-propanol, 305.65 K	0.0121
in n-propanol, 308.15 K	0.0129
in n-propanol, 310.65 K	0.0137
in n-propanol, 313.15 K	0.0145
in n-propanol, 315.65 K	0.0155
in n-propanol, 318.15 K	0.0164
in toluene, 283.15 K	0.0165
in toluene, 285.65 K	0.0174
in toluene, 288.15 K	0.0184
in toluene, 290.65 K	0.0191
in toluene, 293.15 K	0.0202
in toluene, 295.65 K	0.0211
in toluene, 298.15 K	0.0221
in toluene, 300.65 K	0.0231
in toluene, 303.15 K	0.0243
in toluene, 305.65 K	0.0253
in toluene, 308.15 K	0.0265
in toluene, 310.65 K	0.0279
in toluene, 313.15 K	0.0295
in toluene, 315.65 K	0.0314
in toluene, 318.15 K	0.0333
